Measurements taken from PubChem BioAssay AID248 (DTP/NCI, 2004).
Several values for one entry are separate records, joined by “and”; a condition that tells them apart may be missing. Identical values can stand only once. Toxic doses and inconclusive results are not listed.

Test system: L1210 leukemia ip in BDF1 mice, survival T/C
Assay: NCI In Vivo Anticancer Drug Screen. Data for tumor model L1210 Leukemia (intraperitoneal) in B6D2F1 (BDF1) mice
Conditions: higher = longer survival
Procedure, shortened: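 Tumor cells were implanted, animals were treated, and survival was followed. The result divides the treated measurement by the vehicle-control measurement.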

[1] = endpoint: mean survival time, dose: 100.0 mg/kg/injection, schedule: Q01DX009 (ip), vehicle: saline with Tween-80
[2] = endpoint: mean survival time, dose: 200.0 mg/kg/injection, schedule: Q01DX009 (ip), vehicle: saline with Tween-80
[3] = endpoint: mean survival time, dose: 100.0 mg/kg/injection, schedule: Q01DX001 (ip), vehicle: carboxymethylcellulose (CMC)
[4] = endpoint: mean survival time, dose: 200.0 mg/kg/injection, schedule: Q01DX001 (ip), vehicle: carboxymethylcellulose (CMC)
[5] = endpoint: mean survival time, dose: 400.0 mg/kg/injection, schedule: Q01DX001 (ip), vehicle: carboxymethylcellulose (CMC)
[6] = endpoint: mean survival time, dose: 100.0 mg/kg/injection, schedule: Q01DX001 (ip), vehicle: saline
[7] = endpoint: mean survival time, dose: 200.0 mg/kg/injection, schedule: Q01DX001 (ip), vehicle: saline

Structure (SMILES): N=c1nc2n(cc1F)[C@@H]1O[C@H](CO)[C@@H](O)[C@@H]1O2
- T/C (endpoint: mean survival time, dose: 100.0 mg/kg/injection, schedule: Q01DX009 (ip), vehicle: Klucel (hydroxypropylcellulose) (HPC)): 187 % of control
- T/C (endpoint: mean survival time, dose: 200.0 mg/kg/injection, schedule: Q01DX009 (ip), vehicle: Klucel (hydroxypropylcellulose) (HPC)): 177 % of control
- T/C (endpoint: mean survival time, dose: 400.0 mg/kg/injection, schedule: Q01DX001 (ip), vehicle: Klucel (hydroxypropylcellulose) (HPC)): 113 % of control
- T/C (endpoint: mean survival time, dose: 400.0 mg/kg/injection, schedule: Q04DX002 (ip), vehicle: Klucel (hydroxypropylcellulose) (HPC)): 165 % of control and 173 % of control
- T/C (endpoint: mean survival time, dose: 600.0 mg/kg/injection, schedule: Q04DX002 (ip), vehicle: Klucel (hydroxypropylcellulose) (HPC)): 180 % of control
- T/C (endpoint: mean survival time, dose: 800.0 mg/kg/injection, schedule: Q01DX001 (ip), vehicle: Klucel (hydroxypropylcellulose) (HPC)): 116 % of control
- T/C (endpoint: mean survival time, dose: 2000.0 mg/kg/injection, schedule: Q01DX001 (ip), vehicle: Klucel (hydroxypropylcellulose) (HPC)): 123 % of control
- T/C (endpoint: mean survival time, dose: 2000.0 mg/kg/injection, schedule: Q01DX001 (ip), vehicle: saline): 152 % of control
- T/C (endpoint: median survival time, dose: 25.0 mg/kg/injection, schedule: Q03HX024 (ip), vehicle: water): 255 % of control
- T/C (endpoint: median survival time, dose: 50.0 mg/kg/injection, schedule: Q01DX009 (ip), vehicle: steriod suspending solution): 175 % of control
- T/C (endpoint: median survival time, dose: 50.0 mg/kg/injection, schedule: Q03HX024 (ip), vehicle: water): 610 % of control
- T/C (endpoint: median survival time, dose: 100.0 mg/kg/injection, schedule: Q01DX009 (ip), vehicle: steriod suspending solution): 180 % of control
- T/C (endpoint: median survival time, dose: 100.0 mg/kg/injection, schedule: Q01DX009 (ip), vehicle: water): 190 % of control
- T/C (endpoint: median survival time, dose: 100.0 mg/kg/injection, schedule: Q03HX024 (ip), vehicle: water): 390 % of control
- T/C (endpoint: median survival time, dose: 200.0 mg/kg/injection, schedule: Q01DX009 (ip), vehicle: steriod suspending solution): 205 % of control
- T/C (endpoint: median survival time, dose: 200.0 mg/kg/injection, schedule: Q01DX009 (ip), vehicle: water): 240 % of control
- T/C (endpoint: median survival time, dose: 400.0 mg/kg/injection, schedule: Q01DX001 (oral), vehicle: water): 120 % of control
- T/C (endpoint: median survival time, dose: 400.0 mg/kg/injection, schedule: Q01DX009 (ip), vehicle: steriod suspending solution): 340 % of control
- T/C (endpoint: median survival time, dose: 400.0 mg/kg/injection, schedule: Q01DX009 (ip), vehicle: water): 450 % of control
- T/C (endpoint: median survival time, dose: 800.0 mg/kg/injection, schedule: Q01DX001 (ip), vehicle: water): 150 % of control

Structure (SMILES): O=C1C(Cl)=C(NCc2ccco2)C(=O)c2ccccc21
- T/C (endpoint: mean survival time, dose: 77.0 mg/kg/injection, schedule: Q01DX Z (ip), vehicle: methylcellulose (MC)): 89 % of control
- T/C (endpoint: mean survival time, dose: 116.0 mg/kg/injection, schedule: Q01DX Z (ip), vehicle: methylcellulose (MC)): 87 % of control
- T/C (endpoint: mean survival time, dose: 175.0 mg/kg/injection, schedule: Q01DX Z (ip), vehicle: methylcellulose (MC)): 95 % of control

Structure (SMILES): CCCCCCC(OC(C)=O)OC(C)=O
- T/C (endpoint: mean survival time, dose: 222.0 mg/kg/injection, schedule: Q01DX Z (ip), vehicle: saline): 101 % of control
- T/C (endpoint: mean survival time, dose: 333.0 mg/kg/injection, schedule: Q01DX Z (ip), vehicle: saline): 103 % of control
- T/C (endpoint: mean survival time, dose: 500.0 mg/kg/injection, schedule: Q01DX Z (ip), vehicle: saline): 104 % of control

Structure (SMILES): O=S(=O)(c1ccc(Br)cc1)C(F)(F)F
- T/C (endpoint: mean survival time, dose: 100.0 mg/kg/injection, schedule: Q04DX002 (ip), vehicle: saline with Tween-80): 101 % of control
- T/C (endpoint: mean survival time, dose: 200.0 mg/kg/injection, schedule: Q04DX002 (ip), vehicle: saline with Tween-80): 101 % of control
- T/C (endpoint: mean survival time, dose: 400.0 mg/kg/injection, schedule: Q04DX002 (ip), vehicle: saline with Tween-80): 86 % of control

Structure (SMILES): Cc1ccc(C(=O)Cl)cc1S(=O)(=O)F
- T/C (endpoint: mean survival time, dose: 25.0 mg/kg/injection, schedule: Q01DX009 (ip), vehicle: saline with Tween-80): 95 % of control
- T/C (endpoint: mean survival time, dose: 25.0 mg/kg/injection, schedule: Q04DX003 (ip), vehicle: saline with Tween-80): 96 % of control
- T/C (endpoint: mean survival time, dose: 50.0 mg/kg/injection, schedule: Q01DX009 (ip), vehicle: saline with Tween-80): 104 % of control
- T/C (endpoint: mean survival time, dose: 50.0 mg/kg/injection, schedule: Q04DX003 (ip), vehicle: saline with Tween-80): 100 % of control
- T/C (endpoint: mean survival time, dose: 100.0 mg/kg/injection, schedule: Q04DX003 (ip), vehicle: saline with Tween-80): 96 % of control
- T/C (endpoint: mean survival time, dose: 200.0 mg/kg/injection, schedule: Q04DX003 (ip), vehicle: saline with Tween-80): 94 % of control and 102 % of control

Structure (SMILES): O=C(NCCCl)NC(C1CC1)C1CC1
- T/C [1]: 94 % of control
- T/C [2]: 94 % of control

Structure (SMILES): CNc1nc(SCc2ccccc2)c2ncn(C3OC(CO)C(O)C3O)c2n1 (stereo not drawn)
- T/C (endpoint: mean survival time, dose: 50.0 mg/kg/injection, schedule: Q01DX001 (ip), vehicle: carboxymethylcellulose (CMC)): 106 % of control
- T/C [3]: 95 % of control
- T/C [4]: 104 % of control

Structure (SMILES): Cn1c(=O)c2[nH]cnc2n(C)c1=O
- T/C (endpoint: mean survival time, dose: 18.25 mg/kg/injection, schedule: Q01DX Z (ip), vehicle: carboxymethylcellulose (CMC)): 105 % of control
- T/C (endpoint: mean survival time, dose: 36.5 mg/kg/injection, schedule: Q01DX Z (ip), vehicle: carboxymethylcellulose (CMC)): 107 % of control
- T/C (endpoint: mean survival time, dose: 63.0 mg/kg/injection, schedule: Q01DX Z (ip), vehicle: carboxymethylcellulose (CMC)): 92 % of control
- T/C [3]: 98 % of control
- T/C (endpoint: mean survival time, dose: 126.0 mg/kg/injection, schedule: Q01DX Z (ip), vehicle: carboxymethylcellulose (CMC)): 98 % of control
- T/C [4]: 98 % of control
- T/C [5]: 96 % of control

Structure (SMILES): C=CCNC(=O)NCC=C
- T/C (endpoint: mean survival time, dose: 6.25 mg/kg/injection, schedule: Q01DX009 (ip), vehicle: saline): 114 % of control
- T/C (endpoint: mean survival time, dose: 6.25 mg/kg/injection, schedule: Q01DX009 (oral), vehicle: saline): 116 % of control
- T/C (endpoint: mean survival time, dose: 12.5 mg/kg/injection, schedule: Q01DX009 (ip), vehicle: saline): 105 % of control and 106 % of control
- T/C (endpoint: mean survival time, dose: 12.5 mg/kg/injection, schedule: Q01DX009 (oral), vehicle: saline): 110 % of control
- T/C (endpoint: mean survival time, dose: 50.0 mg/kg/injection, schedule: Q01DX009 (oral), vehicle: saline): 176 % of control
- T/C [6]: 111 % of control
- T/C [7]: 114 % of control
- T/C (endpoint: mean survival time, dose: 200.0 mg/kg/injection, schedule: Q01DX009 (oral), vehicle: saline): 100 % of control
- T/C (endpoint: mean survival time, dose: 300.0 mg/kg/injection, schedule: Q01DX009 (ip), vehicle: saline): 122 % of control
- T/C (endpoint: median survival time, dose: 12.5 mg/kg/injection, schedule: Q01DX009 (ip), vehicle: saline): 122 % of control
- T/C (endpoint: median survival time, dose: 12.5 mg/kg/injection, schedule: Q01DX009 (sc), vehicle: saline): 116 % of control
- T/C (endpoint: median survival time, dose: 50.0 mg/kg/injection, schedule: Q01DX009 (ip), vehicle: saline): 112 % of control and 122 % of control
- T/C (endpoint: median survival time, dose: 100.0 mg/kg/injection, schedule: Q01DX001 (ip), vehicle: saline): 105 % of control
- T/C (endpoint: median survival time, dose: 100.0 mg/kg/injection, schedule: Q01DX001 (sc), vehicle: saline): 105 % of control
- T/C (endpoint: median survival time, dose: 100.0 mg/kg/injection, schedule: Q04DX003 (ip), vehicle: saline): 105 % of control
- T/C (endpoint: median survival time, dose: 100.0 mg/kg/injection, schedule: Q04DX003 (sc), vehicle: saline): 111 % of control
- T/C (endpoint: median survival time, dose: 200.0 mg/kg/injection, schedule: Q01DX001 (ip), vehicle: saline): 111 % of control
- T/C (endpoint: median survival time, dose: 200.0 mg/kg/injection, schedule: Q01DX001 (sc), vehicle: saline): 111 % of control
- T/C (endpoint: median survival time, dose: 200.0 mg/kg/injection, schedule: Q01DX009 (ip), vehicle: saline): 100 % of control and 122 % of control
- T/C (endpoint: median survival time, dose: 200.0 mg/kg/injection, schedule: Q04DX003 (ip), vehicle: saline): 116 % of control
- T/C (endpoint: median survival time, dose: 200.0 mg/kg/injection, schedule: Q04DX003 (sc), vehicle: saline): 116 % of control

Structure (SMILES): CN1CCCCCC(=N\O)/C(=N/O)CCCCC1
- T/C (endpoint: mean survival time, dose: 50.0 mg/kg/injection, schedule: Q01DX001 (ip), vehicle: saline): 101 % of control
- T/C [6]: 103 % of control
- T/C [7]: 100 % of control

Structure (SMILES): CCCCC(=O)N/N=C\c1cccc2ccccc12
- T/C [3]: 86 % of control
- T/C [4]: 88 % of control
- T/C [5]: 96 % of control

Structure (SMILES): CC(O)NC(=O)C1CC2c3cccc4[nH]cc(c34)CC2N(C)C1 (stereo not drawn)
- T/C (endpoint: mean survival time, dose: 100.0 mg/kg/injection, schedule: Q04DX003 (ip), vehicle: Klucel (hydroxypropylcellulose) (HPC)): 100 % of control
- T/C (endpoint: mean survival time, dose: 200.0 mg/kg/injection, schedule: Q04DX003 (ip), vehicle: Klucel (hydroxypropylcellulose) (HPC)): 97 % of control
- T/C (endpoint: mean survival time, dose: 400.0 mg/kg/injection, schedule: Q04DX003 (ip), vehicle: Klucel (hydroxypropylcellulose) (HPC)): 105 % of control

Structure (SMILES): CCn1c(=O)n(C)c(=O)n1C(=O)c1ccccc1
- T/C (endpoint: mean survival time, dose: 100.0 mg/kg/injection, schedule: Q04DX003 (ip), vehicle: carboxymethylcellulose (CMC)): 102 % of control
- T/C (endpoint: mean survival time, dose: 200.0 mg/kg/injection, schedule: Q04DX003 (ip), vehicle: carboxymethylcellulose (CMC)): 104 % of control
- T/C (endpoint: mean survival time, dose: 400.0 mg/kg/injection, schedule: Q04DX003 (ip), vehicle: carboxymethylcellulose (CMC)): 109 % of control

Structure (SMILES): O=C(NCc1cnccn1)c1ccccc1
- T/C [1]: 104 % of control
- T/C [2]: 98 % of control
- T/C (endpoint: mean survival time, dose: 400.0 mg/kg/injection, schedule: Q01DX009 (ip), vehicle: saline with Tween-80): 92 % of control
